Assay results published in US20220016048A1, “CANNABIDIOL-TYPE CANNABINOID COMPOUND” (GW Research Limited, priority 2018, published 2022).
“Also recorded” adds a separate entry of the source.

What was measured:
[1] = tested on: sub-chronic PCP-induced deficit in social behaviour in female Lister-Hooded rats; assay: social interaction test in sub-chronic PCP treated rats; format: in vivo, rat
Experimental: The aim of the current study was to investigate the ability of CBD-C4 (3, 10 & 30 mg/kg IP; 60 min pre-treatment (ptt)) in comparison with risperidone (an atypical antipsychotic; 0.1 mg/kg IP; 60 min pre-treatment), to antagonise a sub-chronic PCP (scPCP; 2 mg/kg IP; twice daily for 7-days; 7 day wash out)-induced deficit in social behaviour in female Lister-Hooded rats.
180 female Lister Hooded rats were used for this experiment, of which 90 were used for the drug study and 90 weight-matched untreated conspecifics were used as the companion rat, and their behaviour was not scored.
Rats were housed in groups of 5 under standard laboratory conditions under a 12-hr light: dark cycle, lights on at 0700 hr. Testing was carried out in the light phase. These studies were carried out in accordance with the Animals Scientific Procedures Act (UK, 1986).
CBD-C4 was used at doses of (3, 10, 30 mg/kg, i.p.) and risperidone was used at a dose of 0.1 mg/kg, i.p.
Rats were randomly assigned to two treatment groups and treated with vehicle, n=15 (distilled water, i.p.) or PCP, n=75 (2 mg/kg, i.p. twice daily for 7-days). This was followed by a 7-day wash out period before the rats were tested following acute treatment with CBD-C4, risperidone or vehicle.
Risperidone (0.1 mg/kg) was dissolved in a minimum volume of acetic acid, made up to volume with distilled water and pH adjusted to 6 with 0.1M NaOH and administered via the i.p. route in a volume of 1 ml/kg, 60 min prior to testing.
CBD-C4 (3, 10 & 30 mg/kg) was dissolved in 2:1:17 (Ethanol:Cremophor EL:Saline 0.9%). CBD-C4 was administered via the i.p. route in a volume of 5 ml/kg, 60 min prior to testing.
The social interaction test was performed in an open-field comprising a square box made of Plexiglas (52×52×31 cm) placed 27 cm above the floor on a moveable trolley. The floor of the box was white with black gridlines forming 9 identical squares on it. All other walls were black. A video camera connected to a video recorder and monitor was positioned above the box. The object used for the test consists of a heavy structure made of metal that cannot be displaced by the animals.
After a 7 day drug-free period, the rats were habituated to the test environment and arena prior to the test day. Habituation consisted of placing all rats from one cage together in the empty test arena for one hour for three days including the day before the test day.
Pairs of rats, weight matched (15-20 g) and unfamiliar to each other, receiving either no treatment (n=90 “conspecific” rats) or different treatments (PCP; n=15 “tested” rats, Vehicle; n=15 “tested” rats, or PCP+drug; n=60 “tested” rats) were placed in the test arena together for 10 minutes and behavior assessed as described below.
An inanimate object such as an unopened drink can was also placed in the centre of the arena to measure any differences in interaction of the test animal with an unfamiliar animal as opposed to an unfamiliar object. After each 10-minute trial, the object and arena were cleaned with 10% alcohol in an attempt to remove traces of any olfactory cues. All testing was carried out under standard room illumination levels (70 cd/m^2).
Behaviour in both trials was recorded on video for subsequent blind scoring. A behavioural scoring software program (Hindsight, Scientific programming services) was used to score the following parameters:
Investigative sniffing behaviour: sniffing the conspecific's snout or parts of the body including the anogenital region.
Following: rat moves after the conspecific i.e. a vehicle treated rat of the same species, around the arena.
Avoidances: actively turning away when approached by the conspecific animal.
Investigation of object: exploration of object placed in centre of the arena.
Locomotor activity is recorded by counting the total number of sectors (i.e. lines) crossed by the test rat.
All data were assessed for normality using D'Agostino and Pearson normality test. […]

[2] = 13-week oral toxicity study in rats; format: in vivo, rat; conditions: both sexes, rat, in vivo
Experimental: (§1) The objective of the study was to determine the toxicity of CBD-C4 following daily oral (gavage) administration to the rat for 4 and 13 weeks. The toxicokinetic profile of the CBD-C4 was also assessed.
(§2) Groups of 10 male and 10 female rats were doses at 1, 10 and 100 mg/kg/day for either 4 or 13 weeks.
(§3) Assessment of toxicity of CBD-C4 was based on mortality, clinical observations, post-dose observations, body weights, food consumption, ophthalmic observations, clinical and anatomic pathology.
(§4) Blood samples were collected on days 1 and 28 and week 13 of the study.

rats = assay: 13-week oral toxicity study in rats; format: in vivo, rat
Experimental: as §1, §2, §3, §4

[3] = Toxicokinetic evaluation in embryo-foetal development study; format: in vivo, rat
Experimental: Three groups of 20 time-mated female Wistar (Han) rats were given CBD-C4 once daily by the oral (gavage) route from Day 6 to Day 17 of gestation at dose levels of 1, 10 or 100 mg/kg/day (at a constant dose volume of 5 mL/kg), to cover the period of organogenesis.
Blood samples were taken for toxicokinetic evaluation at pre-dose, 1, 2, 4, 6 and 24 hours after dosing on Days 6 and 17 of gestation. Clinical observations, body weight and food consumption were recorded. On Day 21 of gestation (GD 21) the females were euthanised, and the progress and outcome of pregnancy was evaluated.

[4] = tested on: polychromatic erythrocytes (PCE) of the bone marrow; assay: Rat micronucleus assay; format: in vivo
Experimental: CBD-C4 was tested for its potential to induce micronuclei (MN) in the polychromatic erythrocytes (PCE) of the bone marrow of treated rats to induce DNA damage in the liver of the same animals.
CBD-C4 was administered at a dose of 125, 250 and 500 mg/kg/day during this study. Vehicle and a positive control of ethyl methanesulfonate (EMS) at a dose of 150 mg/kg/day were tested alongside the CBD-C4.
A range finding study was performed on 9 male young adult out-bred Sprague Dawley rats justifying the chosen dose levels of CBD-C4 used during the study.
Animals were allocated into groups of six with the exception of the positive control which comprised three animals.
Rats were dosed by oral gavage with test article suspended in sesame oil, vehicle (sesame oil) or positive control.
Blood samples were taken for bioanalysis and tissue samples were removed from animals at necropsy from the liver and femur.
Bone marrow sampling, micronucleus slide preparation and comet cell suspensions were undertaken to determine level of toxicity of CBD-C4.

[5] = CBD-C4 3, 10, 30 mg/kg, risperidone 0.1 mg/kg i.p., data not shown
[6] = 1, 10 or 100 mg/kg/day oral gavage, 4 or 13 weeks

With `C=C(C)[C@@H]1CCC(C)=C[C@H]1c1c(O)cc(CCCC)cc1O` [CBD-C4, (1′R,2′R)-4-butyl-5′-methyl-2′-(prop-1-en-2-yl)-1′,2′,3′,4′-tetrahydro-[1,1′-biphenyl]-2,6-diol] the “behavioural deficits induced by scPCP” value ([1]; 30 mg/kg i.p.) was “improved all the behavioural deficits”, the “avoidance behaviour compared to the scPCP-treated group” value ([1]; 30 mg/kg i.p., 60 min pre-treatment) was “significantly decreased” and the “following behaviour compared to scPCP” value ([1]; 30 mg/kg i.p., 60 min pre-treatment, P<0.001) was “significantly increased”. The “sniffing behaviour compared to scPCP” value ([1]; 30 mg/kg i.p., 60 min pre-treatment, P<0.01) was “significant increase”, the “line crossings (locomotor activity)” value [1, 5] was “no significant effect” and the object exploration [1, 5] was “no significant effect”. The “any of the parameters measured in the social interaction test” value ([1]; lower doses 3 and 10 mg/kg i.p.) was “no effect”, the NOAEL at 13 weeks ([2]; 13-week daily oral gavage, rats) was 100 mg/kg/day and the NOAEL at 13 weeks ([2]; 13-week oral, sesame oil formulation, rats (summary)) was 100 mg/kg. For the same compound, the clinical pathology parameters (rats; [6]) was “no adverse changes”, the clinical signs (rats; [6]) was “no adverse clinical signs” and the “food consumption, body weight, body weight gains and ophthalmoscopy” value (rats; [6]) was “unaffected”. For the same compound, the test article-related deaths (rats; [6]) was “no test article-related deaths”, the tolerability (rats; [6]) was “well tolerated” and the liver findings (rats; after 4 and 13 weeks of treatment, predominantly at 100 mg/kg/day, considered non-adverse) was “Large livers with correlating organ weight increase and centrilobular hypertrophy”. The “extent of accumulation (exposure after 12 daily doses vs single dose)” value ([3]; 1 mg/kg/day) was “approximately 5 fold”, the “extent of accumulation (exposure after 12 daily doses vs single dose)” value ([3]; 100 mg/kg/day) was about 2 fold and the “time of maximum plasma concentration post dose” value ([3]; GD 6, 1 mg/kg/day oral) was 2 h. For the same compound, the “time of maximum plasma concentration post dose” value ([3]; GD 6, higher dose levels (10, 100 mg/kg/day) oral) was 6 h, the “time of maximum plasma concentration post dose” value ([3]; GD 17, after 12 daily doses, all dose levels) was 4 h and the “plasma levels 24 hours after dosing” value ([3]; both higher dose levels (10, 100 mg/kg/day)) was “quantifiable levels of CBD-C4 remained in plasma”. The “increases in exposure (Cmax and AUC(0-t)) relative to the increase in dose” value ([3]; both sampling occasions (GD 6, GD 17)) was “supra-proportional”, the “time to complete elimination from plasma after dosing” value ([3]; lowest dose level (1 mg/kg/day), both sampling occasions) was at most 24 h and the bone marrow toxicity ([4]; 125, 250 and 500 mg/kg/day oral gavage) was “no evidence of test article related bone marrow toxicity”. For the same compound, the “micronucleus PCE frequencies” value ([4]; all doses (125, 250 and 500 mg/kg/day) oral gavage) was “comparable with the vehicle control group” and the “induction of micronuclei in polychromatic erythrocytes of the bone marrow” value ([4]; male rats treated up to 500 mg/kg/day) was “did not induce an increase in micronuclei; also recorded: No genotoxicity was observed”.
